Activity calls are given as the source filed them.
Experiments:
[1] = test system: Aorta; assay: Vasorelaxant activity in endothelium denuded Wistar rat thoracic aortic rings assessed as inhibition of phenylephrine-induced contraction at 30 uM; type: functional, tissue-based
[2] = test system: Aorta; assay: Vasorelaxant activity in endothelium denuded Wistar rat thoracic aortic rings assessed as inhibition of calcium-induced contraction at 30 uM in presence of Ca2+-free K+-rich medium; type: functional, tissue-based
[3] = test system: Aorta; assay: Vasorelaxant activity in endothelium denuded Wistar rat thoracic aortic rings assessed as inhibition of phenylephrine-induced contraction at 30 uM in presence of Ca2+-free medium pre-incubated with 1 uM phenylephrine abd 1 uM nicardipine
[4] = test system: Aorta; assay: Vasorelaxant activity in Wistar rat thoracic aortic rings with endothelium assessed as inhibition of phenylephrine-induced contraction at 30 uM measured 10 to 30 mins within compound dosing; type: functional, tissue-based

Measured: Activity

C/C=C1/CN2CCc3c([nH]c4ccccc34)[C@H]2C[C@@H]1/C(=C\OC)C(=O)OC
active: [1] | [2] | [3] | [4]

Reference: ChEMBL document CHEMBL1795217, “New vasorelaxant indole alkaloids, villocarines A-D from Uncaria villosa” (Bioorg Med Chem, 2011)
